Data: patent publication US12410323B2, “Potent antifouling agents albofungins target multiple fouling organisms” (The Hong Kong University of Science and Technology, priority 2021, dated 2025)
Values after ≈ are worked out from the molar mass of the structure shown. Where two headings read alike, the source gives them in different places.

Experiments:
Staphylococcus aureus 04 [1] = experiment: Bacterial growth inhibition (antibacterial assay, MIC); assay type: cell-based; conditions: marine broth, overnight
Experimental: (§1) The antibacterial activities of albofungins were tested following specific protocols (She et al., 2020). Marine broth was used as the test medium for the marine bacteria, and the MHB broth was used as the test medium for the pathogenic bacteria. The plate was kept at 22° C. or 30° C. overnight, and the minimum inhibitory concentration (MIC) is the lowest concentration that the drug prevents the visible growth of bacteria. The bacteria which have successfully formed biofilms were further used for antibiofilm formation assays. Different concentrations of albofungin compounds were added to each well. Biofilm formation was assessed through the MTT assay as previously described. […] Data were analyzed using one-way ANOVA to detect significant differences and standard deviation (SD) was calculated using GraphPad Prism 9. All the assays were performed in triplicate.

Staphylococcus sp. Z01 [2] = experiment: as above; assay type: cell-based; conditions: marine broth, overnight
Experimental: as §1

[3] = test system: MCCC 1A11723 Psychrobacter nivimaris; experiment: as above; assay type: cell-based; conditions: marine broth, overnight
Experimental: as §1

Micrococcus sp. Z02 [4] = experiment: as above; assay type: cell-based; conditions: marine broth, overnight
Experimental: as §1

[5] = test system: MCCC 1A04899 Sulfitobacter pontiacus; experiment: as above; assay type: cell-based
Experimental: as §1

[6] = test system: MCCC 1A01390 Pseudomonas pachastrellae; experiment: as above; assay type: cell-based; conditions: Halopseudomonas pachastrellae; marine broth, overnight
Experimental: as §1

Staphylococcus aureus 04 [7] = experiment: Biofilm inhibition assay (MTT), marine bacteria; assay type: cell-based; conditions: lowest concentration inhibiting 90% of biofilm formation; 24 h
Experimental: (§2) The ability of the bacteria to form static biofilms was tested. Marine bacteria were cultured overnight in marine broth at 22° C. with 220 rpm agitation (Pseudomonas pachastrellae MCCC 1A01390, Sulfitobacter pontiacus MCCC 1A04899 and Psychrobacter nivimaris MCCC 1A 11723) and at 30° C. (Staphylococcus aureus B04, Staphylococcus sp. Z01 and Micrococcus sp. Z02) and then diluted to 10^7 CFU mL^−1 in marine broth supplemented with 1% of glucose; pathogenic bacteria was cultured overnight in LB broth with 1% glucose with 220 rpm at 37° C. Afterwards, 200 μL of the diluted solution were added to each well of a 96-well plate (Corning Inc., New York, USA) and was then incubated at 22° C. or 30° C. for 24 h. The culture medium, planktonic cells and loosely adhered bacteria were removed by dual washing with a phosphate-buffered saline (PBS) buffer, and the firmly attached bacteria were incubated with 20 μL of MTT (5 mg mL^−1) at 37° C. for 3 h. The supernatant was discarded, and formazan was dissolved in 150 μL of DMSO. Absorbance was measured using the Multiskan™ FC microplate photometer (Thermo Fisher Scientific, Waltham, USA) under 570 nm, and MRSA ATCC 43300 was used as a positive control. All the experiments were performed in triplicate.
as §1

Staphylococcus sp. Z01 [8] = experiment: Biofilm inhibition assay (MTT), marine bacteria; assay type: cell-based; conditions: lowest concentration inhibiting 90% of biofilm formation; 24 h
Experimental: as §2, §1

[9] = test system: MCCC 1A11723 Psychrobacter nivimaris; experiment: Biofilm inhibition assay (MTT), marine bacteria; assay type: cell-based; conditions: lowest concentration inhibiting 90% of biofilm formation; 24 h
Experimental: as §2, §1

Micrococcus sp. Z02 [10] = experiment: Biofilm inhibition assay (MTT), marine bacteria; assay type: cell-based; conditions: lowest concentration inhibiting 90% of biofilm formation; 24 h
Experimental: as §2, §1

[11] = test system: MCCC 1A04899 Sulfitobacter pontiacus; experiment: Biofilm inhibition assay (MTT), marine bacteria; assay type: cell-based; conditions: lowest concentration inhibiting 90% of biofilm formation; 24 h
Experimental: as §2, §1

[12] = test system: MCCC 1A01390 Pseudomonas pachastrellae; experiment: Biofilm inhibition assay (MTT), marine bacteria; assay type: cell-based; conditions: lowest concentration inhibiting 90% of biofilm formation; 24 h
Experimental: as §2, §1

[13] = Anti-larval settlement bioassay, barnacle; assay type: in vivo, Amphibalanus amphitrite; conditions: Amphibalanus amphitrite (barnacle), cyprid larvae, in vivo; larval mortality, 48 h at 25° C.
Experimental: (§3) A. amphitrite adults were collected from Pak Sha Wan Pier, Hong Kong (22° 38′N, 114° 28′E) and after keeping in the dark for 24 h, a light source was used to stimulate the larval release. Within 1 h, the larvae were collected and cultured in 0.22 μm filtered seawater with a daily diet of Chaetoceros gracilis Schutt at 1×10^6 cells mL^−1 until their growth into cyprids, which were used for the anti-larval settlement bioassay. The bryozoan B. neritina adults were collected from a fish farm in Pak Shek Kok, Hong Kong (22° 43′N, 114° 20′E) and kept in flow-through seawater for no more than 7 days before use. The larvae were released within 30 minutes before the bioassay as described (Xu et al., 2010). The bioassay was conducted in a 24-well polystyrene tissue culture plate with 15-20 larvae in each well. 0.1% of DMSO in filtered seawater (FSW), and 0.625, 1.25, 2.5, 5, 10, 20, and 40 μg mL^−1 albofungin concentrations were tested in triplicate. In each well, 1 mL of FSW containing 15-20 larvae and 1 mL of albofungin solution of different concentrations. The plate was kept for 48 h at 25° C. (bryozoan B. neritina larvae were kept for 3 h). The wells with 0.1% of DMSO in FSW served as a negative control, and butenolide was used as a positive control. The number of attached, swimming, and dead larvae were counted under an Olympus optical microscope (Olympus Corporation, Tokyo, Japan). The settlement rate was calculated as the ratio of settled larvae to the total number of larvae in each well, and the death rate was calculated as the ratio of dead or missing larvae to the total number of larvae in each well. Half maximal effective concentration (EC50) and half lethal concentration (LC50) were determined for each compound, and the ratio of LC50/EC50 was used to evaluate the toxicity of the antifoulant. Experiments were performed in triplicate. Data were analyzed by one-way ANOVA to detect significant differences in the larval settlement, and SD was calculated by GraphPad Prism 9.

[14] = test system: barnacle Amphibalanus amphitrite larvae; experiment: Anti-larval settlement bioassay, barnacle; assay type: in vivo; conditions: for EC50: Amphibalanus amphitrite, larval settlement, 48 h at 25° C., read-out: EC50; for settlement rate compared with control group (0.1% DMSO in FSW): after 48 h of incubation
Experimental: as §3

[15] = test system: Enterobacter cloacae NRRL-B-425; experiment: Biofilm inhibition assay (MTT), pathogenic bacteria; assay type: cell-based; conditions: lowest concentration inhibiting 90% of biofilm formation
Experimental: as §2, §1

[16] = test system: Acinetobacter baumannii B-65371; experiment: as above; assay type: cell-based; conditions: lowest concentration inhibiting 90% of biofilm formation
Experimental: as §2, §1

MRSA ATCC 43300 = experiment: as above; assay type: cell-based, Staphylococcus aureus; conditions: lowest concentration inhibiting 90% of biofilm formation
Experimental: as §2
as §1, with “All the assays were performed in triplicate.” left out

Structure (SMILES)	MIC (Staphylococcus aureus 04 [1]) [µg/mL]	MIC (Staphylococcus sp. Z01 [2]) [µg/mL]	MIC [3] [µg/mL]	MIC (Micrococcus sp. Z02 [4]) [µg/mL]	MIC [5] [µg/mL]	MIC [6] [µg/mL]	MBIC90 (Staphylococcus aureus 04 [7]) [ng/mL]	MBIC90 (Staphylococcus sp. Z01 [8]) [ng/mL]	MBIC90 [9] [µg/mL]	MBIC90 (Micrococcus sp. Z02 [10]) [ng/mL]	MBIC90 [11] [µg/mL]	MBIC90 [12] [µg/mL]	LC50 at 48 h [13] [µg/mL]	EC50 [14] [µg/mL]	settlement rate compared with control group (0.1% DMSO in FSW) [14]	MIC ([5]; marine broth, overnight, read-out: MIC) [µg/mL]	MBIC90 [15] [µg/mL]	MBIC90 [16] [µg/mL]	MBIC90 (MRSA ATCC 43300) [µg/mL]
CO[C@@H]1CC[C@H](O)c2c1oc1c3c4c(c(O)c1c2=O)-c1c(cc2c(Cl)c(C)n(N)c(=O)c2c1O)C[C@H]4OCO3 [Chloroalbofungin (3), chloroalbofungin]	0.0125 (≈ 0.0225 µM)	0.0016 (≈ 0.00288 µM)	> 20	0.05 (≈ 0.0901 µM)	> 20	> 20	250 to 500	100 to 200	>20	250 to 500	10 to 20	>20	> 100	35 (≈ 63.1 µM)	did not cause significant difference				
CO[C@@H]1CC[C@H](O)c2c1oc1c3c4c(c(O)c1c2=O)-c1c(cc2cc(C)[nH]c(=O)c2c1O)C[C@H]4OCO3 [Chrestoxanthone A (4), chrestoxanthone A]	0.0125 (≈ 0.0247 µM)	0.0016 (≈ 0.00317 µM)	> 20	0.0125 (≈ 0.0247 µM)		> 20	62.5 to 125	5 to 10	>20	125 to 250	10 to 20	>20	> 100	> 36.8	did not cause significant difference	20 (≈ 39.6 µM)	>10	1.25 to 2.5	0.13 to 0.25
